Assay results: patent US20220168431A1, “METHODS OF TREATING CANCER USING TRIMETAZIDINE-BASED COMPOUNDS” (IMBRIA PHARMACEUTICALS, INC., priority 2019, published 2022)

Key:
Melanocortin MC4 = Melanocortin MC4 (Homo sapiens, UniProt P32245); type: binding; conditions: 10 μM CV-8814
[1] = biological target: Protein Tyrosine Kinase, LCK (Homo sapiens, UniProt P06239); type: biochemical; conditions: 10 μM CV-8814
Adenosine A2A = Adenosine A2A (Homo sapiens, UniProt P29274); type: binding; conditions: 10 μM CV-8814
Melanocortin MC1 = Melanocortin MC1 (Homo sapiens, UniProt Q01726); type: binding; conditions: 10 μM CV-8814
Cannabinoid CB2 = Cannabinoid CB2 (Homo sapiens, UniProt P34972); type: binding; conditions: 10 μM CV-8814
[2] = biological target: Cholinesterase, Acetyl, ACES (Homo sapiens, UniProt P22303); type: biochemical; conditions: 10 μM CV-8814
[3] = biological target: Nicotinic Acetylcholine α1, Bungarotoxin (Homo sapiens, UniProt P02708+P07510+Q07001); experiment: biochemical; type: binding
PPARγ = PPARγ (Homo sapiens, UniProt P37231); type: binding; conditions: 10 μM CV-8814
Adrenergic α2A = Adrenergic α2A (Homo sapiens, UniProt P08913); type: binding; conditions: 10 μM CV-8814
[4] = biological target: Serotonin (5-Hydroxytryptamine) 5-HT1B (Homo sapiens, UniProt P28222); type: binding; conditions: 10 μM CV-8814
Progesterone PR-B = Progesterone PR-B (Homo sapiens, UniProt P06401); type: binding; conditions: 10 μM CV-8814
[5] = biological target: Serotonin (5-Hydroxytryptamine) 5-HT1A (Homo sapiens, UniProt P08908); type: binding; conditions: 10 μM CV-8814
Cannabinoid CB1 = Cannabinoid CB1 (Homo sapiens, UniProt P21554); type: binding; conditions: 10 μM CV-8814
Histamine H2 = Histamine H2 (Homo sapiens, UniProt P25021); type: binding; conditions: 10 μM CV-8814
[6] = biological target: Transporter, Norepinephrine (NET) (Homo sapiens, UniProt P23975); type: binding; conditions: 10 μM CV-8814
Chain of Transporter, Norepinephrine (NET) (P23975 whole entry): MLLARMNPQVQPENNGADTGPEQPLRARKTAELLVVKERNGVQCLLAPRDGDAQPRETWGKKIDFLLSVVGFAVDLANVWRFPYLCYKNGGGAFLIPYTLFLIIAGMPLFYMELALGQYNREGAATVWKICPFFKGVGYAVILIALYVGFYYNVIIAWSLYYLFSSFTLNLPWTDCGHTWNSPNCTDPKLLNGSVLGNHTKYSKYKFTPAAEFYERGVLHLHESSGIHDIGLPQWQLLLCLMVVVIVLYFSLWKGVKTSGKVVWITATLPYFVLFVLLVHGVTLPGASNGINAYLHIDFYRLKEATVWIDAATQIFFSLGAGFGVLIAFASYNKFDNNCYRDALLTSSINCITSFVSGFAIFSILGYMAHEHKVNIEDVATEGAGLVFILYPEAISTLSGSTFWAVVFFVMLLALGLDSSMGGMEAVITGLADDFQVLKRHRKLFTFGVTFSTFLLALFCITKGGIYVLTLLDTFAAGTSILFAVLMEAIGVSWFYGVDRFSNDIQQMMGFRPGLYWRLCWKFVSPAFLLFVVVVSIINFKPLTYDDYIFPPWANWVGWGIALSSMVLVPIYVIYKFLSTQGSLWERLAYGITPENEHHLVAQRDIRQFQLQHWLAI

Adrenergic α1D = Adrenergic α1D (Homo sapiens, UniProt P25100); type: binding; conditions: 10 μM CV-8814
Vasopressin V1A = Vasopressin V1A (Homo sapiens, UniProt P37288); type: binding; conditions: 10 μM CV-8814
Muscarinic M3 = Muscarinic M3 (Homo sapiens, UniProt P20309); type: binding; conditions: 10 μM CV-8814
Chain of Muscarinic M3 (P20309 whole entry): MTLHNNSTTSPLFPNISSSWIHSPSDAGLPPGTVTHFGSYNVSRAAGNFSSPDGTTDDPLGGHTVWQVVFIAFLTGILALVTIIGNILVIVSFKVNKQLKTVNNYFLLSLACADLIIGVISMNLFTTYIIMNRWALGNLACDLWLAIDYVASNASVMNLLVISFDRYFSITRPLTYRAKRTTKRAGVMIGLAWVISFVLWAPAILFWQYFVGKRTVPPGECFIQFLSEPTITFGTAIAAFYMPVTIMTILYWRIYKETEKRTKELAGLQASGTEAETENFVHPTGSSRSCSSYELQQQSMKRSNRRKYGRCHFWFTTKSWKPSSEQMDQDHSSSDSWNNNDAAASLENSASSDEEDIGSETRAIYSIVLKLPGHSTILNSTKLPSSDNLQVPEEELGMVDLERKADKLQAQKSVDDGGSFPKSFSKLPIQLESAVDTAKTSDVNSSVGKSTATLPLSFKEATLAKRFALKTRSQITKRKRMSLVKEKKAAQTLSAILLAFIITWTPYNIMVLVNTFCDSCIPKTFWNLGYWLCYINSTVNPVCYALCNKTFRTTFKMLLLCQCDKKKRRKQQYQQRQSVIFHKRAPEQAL

GABAB1A = GABAB1A (Homo sapiens, UniProt Q9UBS5); type: binding; conditions: 10 μM CV-8814
[7] = biological target: Platelet Activating Factor (PAF) (Homo sapiens, UniProt P25105); type: binding; conditions: 10 μM CV-8814
[8] = biological target: Peptidase, Angiotensin Converting Enzyme (Oryctolagus cuniculus, UniProt P12822); type: biochemical, rabbit; conditions: 10 μM CV-8814
Chemokine CCR1 = Chemokine CCR1 (Homo sapiens, UniProt P32246); type: binding; conditions: 10 μM CV-8814
Glucocorticoid = Glucocorticoid (Homo sapiens, UniProt P04150); type: binding; conditions: 10 μM CV-8814
[9] = biological target: Glutamate, Metabotropic, mGlu5 (Homo sapiens, UniProt P41594); type: binding; conditions: 10 μM CV-8814
Chain of Glutamate, Metabotropic, mGlu5 (P41594 21-1212): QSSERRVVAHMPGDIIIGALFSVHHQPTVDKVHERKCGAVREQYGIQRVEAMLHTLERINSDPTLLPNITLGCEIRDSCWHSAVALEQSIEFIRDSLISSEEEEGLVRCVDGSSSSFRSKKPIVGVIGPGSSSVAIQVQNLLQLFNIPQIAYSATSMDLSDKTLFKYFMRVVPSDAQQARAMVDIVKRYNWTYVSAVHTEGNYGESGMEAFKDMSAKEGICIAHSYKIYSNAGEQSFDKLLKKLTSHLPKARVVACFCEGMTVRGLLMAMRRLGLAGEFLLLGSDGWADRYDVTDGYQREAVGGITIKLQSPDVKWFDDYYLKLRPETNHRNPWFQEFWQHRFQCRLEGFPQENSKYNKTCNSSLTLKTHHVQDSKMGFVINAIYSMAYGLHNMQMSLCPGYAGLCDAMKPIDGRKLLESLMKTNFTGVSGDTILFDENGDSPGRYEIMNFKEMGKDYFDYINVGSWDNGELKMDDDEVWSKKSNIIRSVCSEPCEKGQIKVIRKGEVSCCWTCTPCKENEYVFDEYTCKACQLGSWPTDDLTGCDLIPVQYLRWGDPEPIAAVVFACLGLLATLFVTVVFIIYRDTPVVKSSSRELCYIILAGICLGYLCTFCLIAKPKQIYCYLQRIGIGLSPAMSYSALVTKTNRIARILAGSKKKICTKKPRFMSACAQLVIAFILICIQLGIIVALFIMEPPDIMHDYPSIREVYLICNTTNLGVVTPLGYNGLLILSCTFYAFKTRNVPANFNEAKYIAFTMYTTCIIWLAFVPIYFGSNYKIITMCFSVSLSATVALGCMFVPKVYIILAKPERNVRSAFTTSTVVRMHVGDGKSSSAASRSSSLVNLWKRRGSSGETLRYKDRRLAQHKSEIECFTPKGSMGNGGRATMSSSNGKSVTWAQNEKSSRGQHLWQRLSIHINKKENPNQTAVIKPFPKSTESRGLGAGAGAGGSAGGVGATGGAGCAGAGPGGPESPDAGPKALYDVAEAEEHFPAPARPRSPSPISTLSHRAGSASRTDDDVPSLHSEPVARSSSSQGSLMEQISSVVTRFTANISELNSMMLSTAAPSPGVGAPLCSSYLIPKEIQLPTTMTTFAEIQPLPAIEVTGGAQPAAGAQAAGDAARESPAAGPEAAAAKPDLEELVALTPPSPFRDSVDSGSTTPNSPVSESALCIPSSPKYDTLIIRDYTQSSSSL

Opiate μ (OP3, MOP) = Opiate μ (OP3, MOP) (Homo sapiens, UniProt P35372); type: binding; conditions: 10 μM CV-8814
Opiate κ (OP2, KOP) = Opiate κ (OP2, KOP) (Homo sapiens, UniProt P41145); type: binding; conditions: 10 μM CV-8814
Adrenergic β2 = Adrenergic β2 (Homo sapiens, UniProt P07550); type: binding; conditions: 10 μM CV-8814
[10] = biological target: Serotonin (5-Hydroxytryptamine) 5-HT2A (Homo sapiens, UniProt P28223); type: binding; conditions: 10 μM CV-8814
Chain of Serotonin (5-Hydroxytryptamine) 5-HT2A (P28223 whole entry): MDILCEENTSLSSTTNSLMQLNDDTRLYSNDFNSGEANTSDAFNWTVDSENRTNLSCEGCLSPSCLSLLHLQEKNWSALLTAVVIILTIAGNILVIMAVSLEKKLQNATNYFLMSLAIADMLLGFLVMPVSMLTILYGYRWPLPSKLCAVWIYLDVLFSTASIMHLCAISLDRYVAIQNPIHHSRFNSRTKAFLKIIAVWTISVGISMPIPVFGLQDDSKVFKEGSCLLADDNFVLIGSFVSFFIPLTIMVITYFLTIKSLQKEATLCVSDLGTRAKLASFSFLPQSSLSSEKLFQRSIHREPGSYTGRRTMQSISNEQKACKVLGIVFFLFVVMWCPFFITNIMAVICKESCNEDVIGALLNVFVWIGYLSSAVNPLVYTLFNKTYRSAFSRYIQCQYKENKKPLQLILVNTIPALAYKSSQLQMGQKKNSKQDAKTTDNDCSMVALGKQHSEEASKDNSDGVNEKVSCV

Glutamate, NMDA, Glycine = Glutamate, NMDA, Glycine (Rattus norvegicus, UniProt P35439); type: binding; conditions: 10 μM CV-8814
[11] = biological target: Protein Tyrosine Kinase, Insulin Receptor (Homo sapiens, UniProt P06213); type: biochemical; conditions: 10 μM CV-8814
Muscarinic M1 = Muscarinic M1 (Homo sapiens, UniProt P11229); type: binding; conditions: 10 μM CV-8814
Chain of Muscarinic M1 (P11229 whole entry): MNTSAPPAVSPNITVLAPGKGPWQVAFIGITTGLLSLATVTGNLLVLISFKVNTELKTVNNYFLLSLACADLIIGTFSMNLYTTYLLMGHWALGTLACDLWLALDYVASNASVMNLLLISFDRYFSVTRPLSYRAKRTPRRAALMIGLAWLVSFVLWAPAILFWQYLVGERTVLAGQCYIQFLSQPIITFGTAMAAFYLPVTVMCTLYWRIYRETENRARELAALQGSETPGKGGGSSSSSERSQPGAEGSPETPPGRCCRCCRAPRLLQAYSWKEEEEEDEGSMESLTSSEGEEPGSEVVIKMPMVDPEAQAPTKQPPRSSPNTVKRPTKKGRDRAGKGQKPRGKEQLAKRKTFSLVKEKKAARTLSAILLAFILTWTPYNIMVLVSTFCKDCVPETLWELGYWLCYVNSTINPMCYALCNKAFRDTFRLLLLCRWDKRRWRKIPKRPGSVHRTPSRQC

Monoamine Oxidase MAO-B = Monoamine Oxidase MAO-B (Homo sapiens, UniProt P27338); type: biochemical; conditions: 10 μM CV-8814
Chain of Monoamine Oxidase MAO-B (P27338 whole entry): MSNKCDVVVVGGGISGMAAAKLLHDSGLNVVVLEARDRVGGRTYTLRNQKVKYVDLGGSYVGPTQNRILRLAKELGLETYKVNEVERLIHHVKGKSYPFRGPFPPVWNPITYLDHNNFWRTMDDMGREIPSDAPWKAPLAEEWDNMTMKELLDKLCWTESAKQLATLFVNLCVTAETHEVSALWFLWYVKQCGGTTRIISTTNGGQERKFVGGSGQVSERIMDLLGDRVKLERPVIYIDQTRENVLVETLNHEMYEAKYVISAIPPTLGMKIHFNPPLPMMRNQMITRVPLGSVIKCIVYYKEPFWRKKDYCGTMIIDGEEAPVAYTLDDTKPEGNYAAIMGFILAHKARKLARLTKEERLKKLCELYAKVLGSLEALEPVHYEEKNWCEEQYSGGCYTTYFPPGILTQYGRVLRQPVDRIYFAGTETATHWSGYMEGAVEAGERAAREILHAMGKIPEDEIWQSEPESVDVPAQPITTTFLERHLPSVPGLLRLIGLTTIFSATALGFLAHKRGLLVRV

Cyclooxygenase COX-2 = Cyclooxygenase COX-2 (Homo sapiens, UniProt P35354); type: biochemical; conditions: 10 μM CV-8814
Chain of Cyclooxygenase COX-2 (P35354 18-604): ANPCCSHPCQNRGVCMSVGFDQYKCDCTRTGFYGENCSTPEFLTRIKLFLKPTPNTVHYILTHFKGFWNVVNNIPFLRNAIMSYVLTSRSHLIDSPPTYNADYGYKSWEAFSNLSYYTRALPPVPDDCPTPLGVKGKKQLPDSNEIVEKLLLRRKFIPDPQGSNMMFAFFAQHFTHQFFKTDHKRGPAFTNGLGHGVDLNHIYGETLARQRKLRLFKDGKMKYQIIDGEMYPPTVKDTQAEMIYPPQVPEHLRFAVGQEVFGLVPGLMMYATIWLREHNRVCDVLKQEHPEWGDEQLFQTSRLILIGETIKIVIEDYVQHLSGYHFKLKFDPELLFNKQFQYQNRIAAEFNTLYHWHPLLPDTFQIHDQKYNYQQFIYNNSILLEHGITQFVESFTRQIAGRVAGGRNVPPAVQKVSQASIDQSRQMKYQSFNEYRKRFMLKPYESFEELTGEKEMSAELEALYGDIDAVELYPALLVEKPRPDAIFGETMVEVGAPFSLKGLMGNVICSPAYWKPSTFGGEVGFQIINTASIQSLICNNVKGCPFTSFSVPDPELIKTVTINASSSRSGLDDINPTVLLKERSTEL

Androgen (Testosterone) = Androgen (Testosterone) (Homo sapiens, UniProt P10275); type: binding; conditions: 10 μM CV-8814
Dopamine D1 = Dopamine D1 (Homo sapiens, UniProt P21728); type: binding; conditions: 10 μM CV-8814
Chain of Dopamine D1 (P21728 whole entry): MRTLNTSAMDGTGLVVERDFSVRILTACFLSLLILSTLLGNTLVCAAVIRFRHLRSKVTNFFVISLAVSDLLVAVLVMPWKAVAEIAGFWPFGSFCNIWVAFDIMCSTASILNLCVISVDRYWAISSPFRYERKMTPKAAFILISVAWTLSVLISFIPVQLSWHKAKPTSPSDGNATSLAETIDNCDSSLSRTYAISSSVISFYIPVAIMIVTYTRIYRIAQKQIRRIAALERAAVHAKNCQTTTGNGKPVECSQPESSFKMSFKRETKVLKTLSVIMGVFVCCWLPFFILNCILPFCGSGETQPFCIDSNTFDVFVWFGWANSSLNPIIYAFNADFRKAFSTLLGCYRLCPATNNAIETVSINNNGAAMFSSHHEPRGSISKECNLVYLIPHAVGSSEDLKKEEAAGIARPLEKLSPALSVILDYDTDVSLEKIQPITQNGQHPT

Dopamine D2L = Dopamine D2L (Homo sapiens, UniProt P14416); type: binding; conditions: 10 μM CV-8814
Adrenergic α1A = Adrenergic α1A (Rattus norvegicus, UniProt P43140); type: binding; conditions: 10 μM CV-8814
Angiotensin AT1 = Angiotensin AT1 (Homo sapiens, UniProt P30556); type: binding; conditions: 10 μM CV-8814
Tachykinin NK1 = Tachykinin NK1 (Homo sapiens, UniProt P25103); type: binding; conditions: 10 μM CV-8814

Measured: inhibition at 10 µM

COc1ccc(CN2CCN(CCO)CC2)c(OC)c1OC [CV-8814, 2-(4-(2,3,4-trimethoxybenzyl)piperazin-1-yl)ethan-1-01]
< 50%: all assays above
